{"source": "patent US11911514B2", "about": "“Extended-release pharmaceutical composition containing lacosamide” (WHAN IN Pharmaceutical Company, priority 2018, dated 2024)", "origin": "cited, not measured here", "tested_on": "patients with epilepsy", "conditions": "taking 400 mg"}
{"molecule": "COC[C@@H](NC(C)=O)C(=O)NCc1ccccc1", "note": "[lacosamide]", "values": [{"measurement": "Number of patients with seizures reduced by more than 50%", "value": "38-49%"}]}
